This passage reports avoidance response score results from US20240099989A1, “AGENT FOR PREVENTING OR IMPROVING PERIPHERAL NEUROPATHY” (KINKI UNIVERSITY, priority 2021, published 2024).

This test concerns Peripheral Neuropathy in a Mouse Caused by Vincristine. In kind it is in vivo, Balb/c mice. The following applies: 0.2 mg/kg vincristine + 100 mg/kg orally daily from Day 6 (therapy); from Day 12 onwards. The text has this: Six to seven-week-old female Balb/c mice were used for the tests. All the mice were acclimated for seven days after arrival. Then, the mice were grouped into the following four groups: a control group, a group receiving vincristine, a group receiving xylitol, and a group receiving vincristine and xylitol (a group receiving vincristine+xylitol). Each group consisted of five mice.
On Day 8 of acclimation, the mice in the group receiving vincristine and the group receiving vincristine+xylitol were intraperitoneally administered with vincristine at a dose of 0.2 mg/kg. This day was designated as Day 0 of administration. Thereafter, these mice were intraperitoneally administered with vincristine at a daily dose of 0.2 mg/kg on Day 7 and Day 14.
The mice in the group receiving xylitol and the group receiving vincristine+xylitol were orally administered with xylitol at a dose of 5 mg/kg daily from Day 0.
The mice in the four groups described in (7) of the present example (Example 1) were placed in a cage, and the avoidance response frequency (score) was measured by pressing a filament with a bending force of 0.16 g against the back of the hind paw.
Six to seven-week-old female Balb/c mice were used for the tests as with Example 1. All the mice were acclimated for seven days after arrival. Then, the mice were grouped into the following four groups: a control group, a group receiving vincristine, a group receiving xylitol, and a group receiving vincristine and xylitol (a group receiving vincristine+xylitol). Each group consisted of five mice. […]
For the mice in the four groups described in (9) of the present example (Example 2), the avoidance response frequency (score) was measured by pressing a filament with a bending force of 0.16 g against the back of the hind paw. […]
The mice in the four groups described in (7) of the present example (Example 3) were placed in a cage, and the avoidance response frequency (score) was measured by pressing a filament with a bending force of 0.16 g against the back of the hind paw. […]
Take `OC[C@@H](O)[C@H](O)CO` [D-threitol]: the avoidance response score result is reported as “maintained a score clearly lower than that of the group receiving vincristine”.

Turning to `OC[C@@H](O)[C@H](O)[C@@H](O)CO` [xylitol], the avoidance response score entry is reported as “maintained a score clearly lower than that of the group receiving vincristine”.

`OC[C@H](O)[C@H](O)[C@H](O)[C@@H](O)CO` [L-talitol]: the avoidance response score entry was “maintained a score clearly lower than that of the group receiving vincristine”.
